For test [1], the system named is mice (female, Crl:Cd1(ICR)). Briefly: Edema scoring at injection area after subcutaneous administration. Format: in vivo. The procedure:
(§1) Different groups of 5 mice (female, age˜12 weeks, Crl:Cd1(ICR), Charles River) were administered with PBS (negative control) or mRNA 1 formulated in lipid nanoparticles. Prior to administration, the mice were lightly anaesthetized with Isoflurane 5% and the injection area was shaved. The formulations were then injected subcutaneously (5 ml/kg or 0.3 mg mRNA/kg) in the intrascapular region to different groups of mice. Post-dose blood samples were collected and plasma was prepared by centrifugation. Aliquots of plasma were transferred into cryo tubes (0.5 ml U-shaped polypropylene cryotubes (Sarstedt Microtube with cap Ref #72.730) and stored frozen until quantification of haptoglobin, cytokines/chemokines and mRNA 1 protein concentrations. In some studies, quantification was also carried out of lipophilic anti-inflammatory agent in plasma samples. At 24 hours after administration, clinical signs of inflammatory response was evaluated by gently pressing the finger over the injection area to determine edema and judged by visual inspection as edema or no edema in the different mice. The number of mice displaying visible signs of edema per group (each group having 5 mice) was summed to give an edema score of 0-5.

A further test has as its system haptoglobin. As to the kind of experiment: Quantification of haptoglobin in plasma. Format: in vivo, mice. To be noted: 24 h; for haptoglobin in plasma: s.c. 0.3 mg mRNA/kg. The procedure:
as §1
Plasma concentrations of haptoglobin were measured by EMD Millipore's MILLIPLEX® MAP Mouse Acute Phase panel 2 kit (Merck KGaA, Darmstadt, Germany). The sample was first diluted 1:20 000 with Assay buffer then, together with standard's and QC's placed in a 96 well plate. A solution containing beads were then added. The beads were magnetic microspheres each of which was coated with a specific antibody. The mixture was incubated over night at 4° C. and the reaction mixture was then incubated with Streptavidin-PE conjungate to complete the reaction on the surface of each microsphere. The plate was read on analyzer Luminex® 100. Each individual microsphere was identified and the result of its bioassay quantified based on fluorescent reporter signals. The concentration was measured using Median Fluorescent Intensity (MFI) data using a 5-parameter logistic curve-fitting method.

The subject of the next test is mRNA 1 protein. Briefly: Quantification of mRNA 1 protein in plasma. The test is classed as in vivo, mice. To be noted: s.c. 0.3 mg mRNA/kg; for protein expression (plasma mRNA 1 protein): Example 6, pro-drug in DLin-MC3-DMA LNPs, 0-24 h, vs. non-anti-inflammatory LNPs; for expression of mRNA 1 (plasma): Example 10, pro-drug in L608 (Merck-32) LNPs, vs. conventional LNPs (Sample S26). As for the experimental part: as §1
mRNA 1 protein was measured as a single analyte with the Milliplex Human Liver Protein Magnetic beads [Merck Millipore, Darmstadt, Germany]. The assay was performed using the Bioplex Multiplex Suspension Array System, Luminex 100TM] and Bioplex Manager 6.1 software curve fitting software [Bio-Rad Laboratories, Hercules, Calif.]. Briefly, the assay was performed according to a modified protocol based upon the manufacturers' instruction, with additional calibration points to extend the lower range of the standard curve. Sample data was back calculated from the standard curve (5PL curve fitting).

The subject of a further test is IL-6. Briefly: Quantification of cytokines/chemokines in plasma: IL-6. The test is classed as in vivo, mice. As to conditions: Example 10; pro-drug in L608 (Merck-32) LNPs, s.c. 0.3 mg mRNA/kg, 7 and 24 hours; vs. Sample S26. As for the experimental part: (§2) Different groups of 5 mice (female, age˜12 weeks, Crl:Cd1(ICR), Charles River) were administered with PBS (negative control) or mRNA 1 formulated in lipid nanoparticles. Prior to administration, the mice were lightly anaesthetized with Isoflurane 5% and the injection area was shaved. The formulations were then injected subcutaneously (5 ml/kg or 0.3 mg mRNA/kg) in the intrascapular region to different groups of mice. Post-dose blood samples were collected and plasma was prepared by centrifugation. Aliquots of plasma were transferred into cryo tubes (0.5 ml U-shaped polypropylene cryotubes (Sarstedt Microtube with cap Ref #72.730) and stored frozen until quantification of haptoglobin, cytokines/chemokines and mRNA 1 protein concentrations. In some studies, quantification was also carried out of lipophilic anti-inflammatory agent in plasma samples. At 24 hours after administration, clinical signs of inflammatory response was evaluated by gently pressing the finger over the injection area to determine edema and judged by visual inspection as edema or no edema in the different mice. The number of mice displaying visible signs of edema per group (each group having 5 mice) was summed to give an edema score of 0-5. Plasma concentrations of murine cytokines/chemokines were measured by EMD Millipore's MILLIPLEX® MAP Mouse Cytokine magnetic bead kit (Merck KGaA, Darmstadt, Germany) for the simultaneous quantification of cytokines; IL-6, KC, MCP-1 and IP-10. The samples were first diluted 1:2 with Assay buffer then, together with standard's and QC's placed in a 96 well plate. A solution containing beads were added. The beads are magnetic microspheres each of which is coated with a specific antibody. The mixture was incubated over night at 4° C. and the reaction mixture was then incubated with Streptavidin-PE conjungate to complete the reaction on the surface of each microsphere. The plate was read on analyzer Luminex® 100. Each individual microsphere was identified and the result of its bioassay quantified based on fluorescent reporter signals. The concentration was measured using Median Fluorescent Intensity (MFI) data using a 5-parameter logistic curve-fitting method.

Another test has as its system KC. Briefly: Quantification of cytokines/chemokines in plasma: KC. Format: in vivo, mice. To be noted: Example 10; pro-drug in L608 (Merck-32) LNPs, s.c. 0.3 mg mRNA/kg, 7 and 24 hours; vs. Sample S26. The procedure: as §2
The mark [2] stands for this setting: Example 6, pro-drug in DLin-MC3-DMA LNPs with mRNA 1, s.c. 0.3 mg mRNA/kg, vs. non-anti-inflammatory LNPs.
Where [3] appears, read: Example 6, pro-drug in DLin-MC3-DMA LNPs, vs. non-anti-inflammatory LNPs.
[4] abbreviates: Example 7, in both DLin-MC3-DMA or Merck-32 based LNPs.
The mark [5] stands for this setting: Example 10, pro-drug in L608 (Merck-32) LNPs, s.c. 0.3 mg mRNA/kg, vs. conventional LNPs (Sample S26).
Where [6] appears, read: Example 10, pro-drug in L608 (Merck-32) LNPs, vs. conventional LNPs (Sample S26).
Setting [7] is: Example 9, in both Acuitas-5 and KL10 based LNPs, s.c. 0.3 mg/kg, compared to LNPs based on DLin-MC3-DMA.

On to `CCCCCCCCCCCCCCCC(=O)OCC(=O)C12OC(CCC)OC1CC1C3CC(F)C4=CC(=O)CCC4(C)C3(F)C(O)CC12C` (stereo not shown) [R-C16, rofleponide palmitate], for which the “inflammation measured as edema scoring” value is recorded as “significantly reduced” in test [1] (setting [2]) and “significantly reduced” in test [1] (Example 7, in both DLin-MC3-DMA or Merck-32 based LNPs, s.c. 0.3 mg mRNA/kg, 24 h, vs same LNPs without). Besides, the haptoglobin in plasma result in the test on haptoglobin (setting [3]) and with haptoglobin (setting [4]) was “significantly reduced” throughout. Also, the “protein expression (plasma mRNA 1 protein)” value with mRNA 1 protein is “increased and prolonged protein expression”. Also, in the test on mRNA 1 protein (setting [4]), the “expression of mRNA 1 protein” value was “increased expression of mRNA 1 protein”.

As for `CCCCC(=O)OCC(=O)[C@@]12O[C@H](CCC)O[C@@H]1C[C@H]1[C@@H]3C[C@H](F)C4=CC(=O)CC[C@]4(C)[C@@]3(F)[C@@H](O)C[C@@]12C` [R-C5, rofleponide valerate], in test [1] (setting [2]), the “inflammation measured as edema scoring” value is “not significantly influenced”. For the same compound, the haptoglobin in plasma result in the test with haptoglobin (setting [3]) is “not significantly influenced”. For the same compound, the “protein expression (plasma mRNA 1 protein)” value in the test on mRNA 1 protein is on record as “did not produce a significantly increased total protein expression”.

On to `CCCCCCCC/C=C\CCCCCCCC(=O)OCC(=O)[C@@]12OC(CCC)O[C@@H]1C[C@H]1[C@@H]3CCC4=CC(=O)C=C[C@]4(C)[C@H]3[C@@H](O)C[C@@]12C` (stereo partly shown) [B-C18:1, budesonide oleate], for which, in test [1] (setting [5]), the “inflammation measured as edema scoring” value is listed as “significantly reduce”. In addition, in the test with haptoglobin (setting [6]), the haptoglobin in plasma result is “significantly reduce”. In addition, the “plasma IL-6” value with IL-6 is reported as “significantly reduce”. In addition, in the test on KC, the “plasma KC” value is recorded as “significantly reduce”. The “expression of mRNA 1 (plasma)” value in the test with mRNA 1 protein is “increased and prolonged expression of mRNA 1”.

Turning to `CCCCCCCCCCCCCCCCCC(=O)OCC(=O)[C@@]12O[C@H](CCC)O[C@@H]1C[C@H]1[C@@H]3C[C@H](F)C4=CC(=O)CC[C@]4(C)[C@@]3(F)[C@@H](O)C[C@@]12C` [R-C18, rofleponide stearate], in test [1] (setting [2]), the “inflammation measured as edema scoring” value was “significantly reduced”. Besides, in the test on haptoglobin (setting [3]), the haptoglobin in plasma result was “significantly reduced”. Besides, the “protein expression (plasma mRNA 1 protein)” value in the test on mRNA 1 protein is “increased and prolonged protein expression”.

On to `CCCCCCCCCCCCCC(=O)OCC(=O)[C@@]12OC(CCC)O[C@@H]1C[C@H]1[C@@H]3CCC4=CC(=O)C=C[C@]4(C)[C@H]3[C@@H](O)C[C@@]12C` (stereo partly shown) [B-C14, budesonide myristate], for which the “inflammation measured as edema scoring” value in test [1] (setting [5]) is “not influenced to the same extent”. In addition, in the test with haptoglobin (setting [6]), the haptoglobin in plasma entry was “not influenced to the same extent”. For the same compound, the “plasma IL-6” value in the test on IL-6 was “not influenced to the same extent”. In addition, in the test on KC, the “plasma KC” value was “not influenced to the same extent”.

For `CCCCCCCCCCCCCC(=O)OCC(=O)C12OC(CCC)OC1CC1C3CC(F)C4=CC(=O)CCC4(C)C3(F)C(O)CC12C` (stereo not shown) [R-C14, rofleponide myristate], the entries for the “inflammation measured as edema scoring” value in test [1] (setting [2]), in test [1] (setting [7]) and in test [1] (setting [5]) were “significantly reduced”, “reduced” and “significantly reduce”, respectively. For the same compound, the haptoglobin in plasma entry is listed as “significantly reduced” in the test on haptoglobin (setting [3]) and “significantly reduce” with haptoglobin (setting [6]). Further, the plasma haptoglobin entry in the test with haptoglobin (setting [7]) was “reduced”. For the same compound, the “plasma IL-6” value in the test with IL-6 is given as “significantly reduce”. Moreover, the “plasma KC” value in the test on KC was “significantly reduce”. Also, in the test on mRNA 1 protein, the “protein expression (plasma mRNA 1 protein)” value was “increased and prolonged protein expression”. Moreover, the “mRNA 1 protein expression” value in the test on mRNA 1 protein (Example 9, time interval 0-24 h, Acuitas-5 and KL10 LNPs with vs without rofleponide myristate) was “increased”. Also, the “expression of mRNA 1 (plasma)” value in the test with mRNA 1 protein was “increased and prolonged expression of mRNA 1”.

On to `CCCCCCCCCCCCCCCC(=O)OCC(=O)[C@@]12OC(CCC)O[C@@H]1C[C@H]1[C@@H]3CCC4=CC(=O)C=C[C@]4(C)[C@H]3[C@@H](O)C[C@@]12C` (stereo partly shown) [B-C16, budesonide palmitate], for which the “inflammation measured as edema scoring” value in test [1] (setting [5]) is listed as “significantly reduce”. Also, the haptoglobin in plasma entry in the test with haptoglobin (setting [6]) is given as “significantly reduce”. The “plasma IL-6” value in the test with IL-6 is “significantly reduce”. The “plasma KC” value with KC was “significantly reduce”. Further, the “expression of mRNA 1 (plasma)” value in the test on mRNA 1 protein is “increased and prolonged expression of mRNA 1”.

The values are drawn from US11458106B2, “Lipid nanoparticles comprising lipophilic anti-inflammatory agents and methods of use thereof” (ASTRAZENECA AB, priority 2016, dated 2022).
